Data published in PMC4337230 (The journal of physical chemistry. B, 2010).

Target: T1, Lysine 2,3-aminomutase (LAM) (Clostridium subterminale, UniProt Q9XBQ8)
T1 sequence (Q9XBQ8 1-416): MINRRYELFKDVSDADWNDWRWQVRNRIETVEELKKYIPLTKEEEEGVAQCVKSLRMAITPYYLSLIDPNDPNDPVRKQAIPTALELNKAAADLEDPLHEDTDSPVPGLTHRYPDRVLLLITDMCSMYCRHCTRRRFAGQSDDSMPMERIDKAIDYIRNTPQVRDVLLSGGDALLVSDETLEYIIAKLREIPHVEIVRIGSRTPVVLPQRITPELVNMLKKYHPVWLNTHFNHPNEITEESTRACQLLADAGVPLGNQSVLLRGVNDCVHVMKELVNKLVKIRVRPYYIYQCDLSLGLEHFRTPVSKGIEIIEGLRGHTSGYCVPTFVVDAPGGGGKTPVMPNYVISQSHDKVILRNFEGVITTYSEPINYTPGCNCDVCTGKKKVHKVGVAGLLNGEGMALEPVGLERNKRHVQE
Experiment: activation of L-alanine […],3-aminomutation, PITC-HPLC
Type: biochemical
Details: 200000 µM; activator; 0.2 M L-alanine, 0.16 mM SAM, pH 8.0, 37 °C, anaerobic

## CN [methylamine]
  fold acceleration at 0.2 M: 27 fold
